Measurements as given in US20110136792A1, “NOVEL CARBOXYLIC ACID ANALOGS AS GLYCOGEN SYNTHASE ACTIVATORS” (priority 2009, published 2011).

System: glycogen synthase
Test: Glycogen Synthase (GS) Assay
Assay type: biochemical
Settings: coupled pyruvate kinase/lactate dehydrogenase assay, absorbance at 340 nm; for EC50: compound concentration needed to give 50% maximum activation; for GS SC200: compound concentration needed to stimulate 200% of the enzyme activity
Experimental: The following tests were carried out in order to determine the activity of the compounds of formula (I).
Twelve μL per well of substrate solution containing glycogen (4.32 mg/ml), 2.67 mM UDP-glucose, 21.6 mM phospho(enol)pyruvate and 2.7 mM NADH in 30 mM glycylglycine, pH 7.3 buffer was added into a polystyrene 384-well assay plate (BD Biosciences).
Compound solutions (8 μL/well) at various concentrations (0-300 μM) were added to the assay plate (columns 5-24). Compound solution contains 30 mM glycylglycine, pH 7.3, 40 mM KCl, 20 mM MgCl2, 9.2% DMSO, with (columns 15-24) or without (columns 5-14) 20 mM glucose 6-phosphate.
Enzyme solution (12 μL/well) containing glycogen synthase (16.88 μg/ml), pyruvate kinase (0.27 mg/ml), lactate dehydrogenase (0.27 mg/ml) in 50 mM Tris-HCl, pH 8.0, 27 mM DTT and bovine serum albumin (BSA, 0.2 mg/ml) was added to the assay plate (columns 3-24). As a blank control, enzyme solution without glycogen synthase was added into the top half wells of columns 1-2. To the bottom half wells of columns 1-2 were added a known activator, glucose 6-phosphate (at final concentration 5 mM) in addition to the enzyme solution. The reaction mixture was incubated at room temperature. The assay plate was then read for absorbance at 340 nm on an Envision reader every 3 minutes up to a total of 15 minutes.
The enzyme activity (with or without compound) was calculated by the reaction rate and represented by the optical density change (δOD) per minute. Percent stimulation of glycogen synthase activity by a compound at various concentrations was calculated by the following formula: […]
Where Rs is the reaction rate of the enzyme in the presence of compound and Rt is the reaction rate of the enzyme in the absence of compound.
SC200 is defined as the compound concentration that is needed to stimulate 200% of the enzyme activity. EC50 is defined as the compound concentration that is needed to give 50% maximum activation.
Compounds from Examples 1 through Example 64 were assayed according to assay procedures described above and the result is listed in Table 1 below: […]

Structure (SMILES) | EC50 | GS SC200
COc1cc(F)c(F)cc1-c1ccc(OCc2cccc(CN(CC(=O)O)C(=O)c3cscn3)c2)cc1 [Example 27, [[3-(4′,5′-Difluoro-2′-methoxy-biphenyl-4-yloxymethyl)-benzyl]-(thiazole-4-carbonyl)-amino]-acetic acid] | 520 nM | 0.08 µM
COc1cc(F)c(F)cc1-c1ccc(OCc2cccc(CN(CC(=O)O)C(=O)c3cn(C)cn3)c2)cc1 [Example 29, [[3-(4′,5′-Difluoro-2′-methoxy-biphenyl-4-yloxymethyl)-benzyl]-(1-methyl-1H-imidazole-4-carbonyl)-amino]-acetic acid] | 340 nM | 0.01 µM
COc1cc(F)c(F)cc1-c1ccc(OCc2cccc(CN(CC(=O)O)C(=O)c3cccnc3)c2)cc1 [Example 30, [[3-(4′,5′-difluoro-2′-methoxy-biphenyl-4-yloxymethyl)-benzyl]-(pyridine-3-carbonyl)-amino]-acetic acid] | 470 nM | 0.04 µM
COc1cc(F)c(F)cc1-c1ccc(OCc2cccc(CN(CC(=O)O)Cc3ccccc3)c2)cc1 [Example 35, {Benzyl-[3-(4′,5′-difluoro-2′-methoxy-biphenyl-4-yloxymethyl)-benzyl]-amino}-acetic acid] | 1460 nM | 0.46 µM
COc1cc(F)c(F)cc1-c1ccc(OCc2cccc(CNCC(=O)O)c2)cc1.Cl [Example 37, [3-(4′,5′-Difluoro-2′-methoxy-biphenyl-4-yloxymethyl)-benzylamino]-acetic acid] | 4900 nM | 0.38 µM
O=C(O)C1CCS(=O)(=O)N1Cc1ccc(F)c(COc2ccc(-c3ccc(F)cc3F)cc2)c1 (stereo not shown) [Example 41, 2-[3-(2′,4′-Difluoro-biphenyl-4-yloxymethyl)-4-fluoro-benzyl]-1,1-dioxo-1lambda*6*-isothiazolidine-3-carboxylic acid] | 150 nM | 0.07 µM
O=C(O)C1CCS(=O)(=O)N1Cc1cc(COc2ccc(-c3ccc(F)cc3F)cc2)ccc1F (stereo not shown) [Example 42, 2-[5-(2′,4′-Difluoro-biphenyl-4-yloxymethyl)-2-fluoro-benzyl]-1,1-dioxo-1lambda*6*-isothiazolidine-3-carboxylic acid] | 180 nM | 0.06 µM
COc1cc(F)c(F)cc1-c1ccc(OCc2cccc(CN3[C@@H](C(=O)O)CCS3(=O)=O)c2)cc1 [Example 44, (R)-2-[3-(4′,5′-Difluoro-2′-methoxy-biphenyl-4-yloxymethyl)-benzyl]-1,1-dioxo-1lambda*6*-isothiazolidine-3-carboxylic acid] | 380 nM | 0.09 µM
COc1cc(F)c(F)cc1-c1ccc(OCc2cccc(CN3[C@H](C(=O)O)CCS3(=O)=O)c2)cc1 [Example 45, (S)-2-[3-(4′,5′-Difluoro-2′-methoxy-biphenyl-4-yloxymethyl)-benzyl]-1,1-dioxo-1lambda*6*-isothiazolidine-3-carboxylic acid] | 120 nM | 0.02 µM
O=C(O)[C@@H]1CCS(=O)(=O)N1Cc1cccc(COc2ccc(-c3cc(F)c(F)cc3F)cc2)c1 [Example 46, (S)-1,1-Dioxo-2-[3-(2′,4′,5′-trifluoro-biphenyl-4-yloxymethyl)-benzyl]-1lambda*6*-isothiazolidine-3-carboxylic acid] | 90 nM | 0.01 µM
O=C(O)[C@H]1CCS(=O)(=O)N1Cc1cccc(COc2ccc(-c3cc(F)c(F)cc3F)cc2)c1 [Example 47, (R)-1,1-Dioxo-2-[3-(2′,4′,5′-trifluoro-biphenyl-4-yloxymethyl)-benzyl]-1lambda*6*-isothiazolidine-3-carboxylic acid] | 1820 nM | 0.62 µM
Cc1cc(F)c(F)cc1-c1ccc(OCc2cccc(CN3[C@H](C(=O)O)CCS3(=O)=O)c2)cc1 [Example 48, (S)-2-[3-(4′,5′-Difluoro-2′-methyl-biphenyl-4-yloxymethyl)-benzyl]-1,1-dioxo-1lambda*6*-isothiazolidine-3-carboxylic acid] | 110 nM | 0.01 µM
Cc1cc(F)c(F)cc1-c1ccc(OCc2cccc(CN3[C@@H](C(=O)O)CCS3(=O)=O)c2)cc1 [Example 49, (R)-2-[3-(4′,5′-Difluoro-2′-methyl-biphenyl-4-yloxymethyl)-benzyl]-1,1-dioxo-1lambda*6*-isothiazolidine-3-carboxylic acid] | 890 nM | 0.35 µM
O=C(O)[C@H]1CCS(=O)(=O)N1Cc1cccc(COc2ccc(-c3cc(F)c(F)cc3Cl)cc2)c1 [Example 50, (R)-2-[3-(2′-Chloro-4′,5′-difluoro-biphenyl-4-yloxymethyl)-benzyl]-1,1-dioxo-1lambda*6*-isothiazolidine-3-carboxylic acid] | 840 nM | 0.42 µM
O=C(O)[C@@H]1CCS(=O)(=O)N1Cc1cccc(COc2ccc(-c3cc(F)c(F)cc3Cl)cc2)c1 [Example 51, (S)-2-[3-(2′-Chloro-4′,5′-difluoro-biphenyl-4-yloxymethyl)-benzyl]-1,1-dioxo-1lambda*6*-isothiazolidine-3-carboxylic acid] | 100 nM | 0.03 µM
COc1cc(F)c(F)cc1-c1ccc(OCc2cccc(CN3C(=O)CC[C@H]3C(=O)O)c2)cc1 [Example 52, (S)-1-[3-(4′,5′-Difluoro-2′-methoxy-biphenyl-4-yloxymethyl)-benzyl]-5-oxo-pyrrolidine-2-carboxylic acid] | 120 nM | 0.02 µM
O=C(O)[C@@H]1CCC(=O)N1Cc1cccc(COc2ccc(-c3cc(F)c(F)cc3F)cc2)c1 [Example 53, (S)-5-Oxo-1-[3-(2′,4′,5′-trifluoro-biphenyl-4-yloxymethyl)-benzyl]-pyrrolidine-2-carboxylic acid] | 130 nM | 0.03 µM

Continued, in another order:

EC50 | Structure (SMILES) | GS SC200
730 nM | COc1cc(F)c(F)cc1-c1ccc(OCc2cccc(CN(CC(=O)O)C(=O)CC3CC3)c2)cc1 [Example 24, {(2-Cyclopropyl-acetyl)-[3-(4′,5′-difluoro-2′-methoxy-biphenyl-4-yloxymethyl)-benzyl]-amino}-acetic acid] | 0.12 µM
410 nM | COc1cc(F)c(F)cc1-c1ccc(OCc2cccc(CN(CC(=O)O)C(=O)[C@@H]3CCCO3)c2)cc1 [Example 25, [[3-(4′,5′-Difluoro-2′-methoxy-biphenyl-4-yloxymethyl)-benzyl]-((S)-tetrahydro-furan-2-carbonyl)-amino]-acetic acid] | 0.07 µM
450 nM | COCCC(=O)N(CC(=O)O)Cc1cccc(COc2ccc(-c3cc(F)c(F)cc3OC)cc2)c1 [Example 26, [[3-(4′,5′-Difluoro-2′-methoxy-biphenyl-4-yloxymethyl)-benzyl]-(3-methoxy-propionyl)-amino]-acetic acid] | 0.05 µM
410 nM | COCC(=O)N(CC(=O)O)Cc1cccc(COc2ccc(-c3cc(F)c(F)cc3OC)cc2)c1 [Example 28, [[3-(4′,5′-Difluoro-2′-methoxy-biphenyl-4-yloxymethyl)-benzyl]-(2-methoxy-acetyl)-amino]-acetic acid] | 0.06 µM
480 nM | COCC(C)C(=O)N(CC(=O)O)Cc1cccc(COc2ccc(-c3cc(F)c(F)cc3OC)cc2)c1 (stereo not shown) [Example 31] | 0.07 µM
610 nM | COc1cc(F)c(F)cc1-c1ccc(OCc2cccc(CN(CC(=O)O)C(=O)C3CCN(C)CC3)c2)cc1 [Example 32, [[3-(4′,5′-Difluoro-2′-methoxy-biphenyl-4-yloxymethyl)-benzyl]-(1-methyl-piperidine-4-carbonyl)-amino]-acetic acid] | 0.07 µM
350 nM | COc1cc(F)c(F)cc1-c1ccc(OCc2cccc(CN(CC(=O)O)C(=O)[C@H]3CCCO3)c2)cc1 [Example 33, [[3-(4′,5′-Difluoro-2′-methoxy-biphenyl-4-yloxymethyl)-benzyl]-((R)-tetrahydro-furan-2-carbonyl)-amino]-acetic acid] | 0.02 µM
280 nM | COc1cc(F)c(F)cc1-c1ccc(OCc2cccc(CN(CC(=O)O)C(=O)C3CCOC3)c2)cc1 (stereo not shown) [Example 34, [[3-(4′,5′-Difluoro-2′-methoxy-biphenyl-4-yloxymethyl)-benzyl]-(tetrahydro-furan-3-carbonyl)-amino]-acetic acid] | 0.04 µM
1930 nM | CCN(CC(=O)O)Cc1cccc(COc2ccc(-c3cc(F)c(F)cc3OC)cc2)c1 [Example 36, {[3-(4′,5′-Difluoro-2′-methoxy-biphenyl-4-yloxymethyl)-benzyl]-ethyl-amino}-acetic acid] | 0.50 µM
